{
  "source": "patent US10472391B2",
  "about": "(priority 2013, dated 2019)",
  "key": {"ADAM10": {"biological_target": "T1, ADAM10 (Homo sapiens, UniProt O14672)", "T1 sequence (O14672 214-748)": "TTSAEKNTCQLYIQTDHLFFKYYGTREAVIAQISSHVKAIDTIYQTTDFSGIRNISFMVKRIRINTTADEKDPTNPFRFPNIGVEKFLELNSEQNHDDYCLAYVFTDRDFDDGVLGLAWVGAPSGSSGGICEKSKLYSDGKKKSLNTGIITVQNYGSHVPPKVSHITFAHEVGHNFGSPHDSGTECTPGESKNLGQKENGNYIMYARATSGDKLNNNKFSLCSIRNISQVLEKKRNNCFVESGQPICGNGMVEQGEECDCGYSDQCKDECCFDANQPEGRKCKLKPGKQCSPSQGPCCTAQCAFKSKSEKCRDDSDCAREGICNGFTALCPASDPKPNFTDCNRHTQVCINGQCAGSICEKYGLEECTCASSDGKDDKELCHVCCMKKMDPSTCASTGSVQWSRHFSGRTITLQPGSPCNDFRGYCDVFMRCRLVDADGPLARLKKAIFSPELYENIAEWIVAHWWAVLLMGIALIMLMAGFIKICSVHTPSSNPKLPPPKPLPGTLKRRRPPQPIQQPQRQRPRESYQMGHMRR", "experiment": "IC50 of GI254023X (assay not given)"}, "A549 cells": {"test_system": "A549 cells", "format": "cell-based"}, "[1]": {"test_system": "Hla-mediated cytotoxicity", "settings": "cited from earlier work"}},
  "data": [
    {"smiles": "CNC(=O)[C@@H](NC(=O)[C@H](CCCc1ccccc1)[C@H](C)N(O)C=O)C(C)(C)C", "note": "[GI254023X, (R)—N—((S)-3,3-dimethyl-1-(methylamino)-1-oxobutan-2-yl)-2-((S)-1-(N-hydroxyformamido)-ethyl)-5-phenylpentanamide]", "values": [
      {"measurement": "IC50", "setting": "ADAM10", "result": "~5", "unit": "µM"},
      {"measurement": "inhibition of binding of radiolabelled Hla to A549 cells", "setting": "A549 cells", "result": "inhibition of binding of radiolabelled Hla to A549 cells"},
      {"measurement": "effect on Hla-mediated cytotoxicity", "setting": "[1]", "result": "prevents Hla-mediated cytotoxicity"}
    ]}
  ]
}
